Reference: ChEMBL document CHEMBL1777682, “NMR evaluation of interactions between substituted-indole and PDZ1 domain of PSD-95” (Bioorg Med Chem Lett, 2011)
Active and inactive are the calls of the source. The rule behind the calls is not given here.

Target: Disks large homolog 4 (Homo sapiens) (UniProt P78352)
Test: Binding affinity to recombinant 15N-labelled PSD95-PDZ1 domain expressed in Escherichia coli BL21 assessed as chemical shift perturbation by NMR spectra analysis

Disks large homolog 4 (Homo sapiens), sequence (P78352 whole entry, looked up, the tested form may be a part): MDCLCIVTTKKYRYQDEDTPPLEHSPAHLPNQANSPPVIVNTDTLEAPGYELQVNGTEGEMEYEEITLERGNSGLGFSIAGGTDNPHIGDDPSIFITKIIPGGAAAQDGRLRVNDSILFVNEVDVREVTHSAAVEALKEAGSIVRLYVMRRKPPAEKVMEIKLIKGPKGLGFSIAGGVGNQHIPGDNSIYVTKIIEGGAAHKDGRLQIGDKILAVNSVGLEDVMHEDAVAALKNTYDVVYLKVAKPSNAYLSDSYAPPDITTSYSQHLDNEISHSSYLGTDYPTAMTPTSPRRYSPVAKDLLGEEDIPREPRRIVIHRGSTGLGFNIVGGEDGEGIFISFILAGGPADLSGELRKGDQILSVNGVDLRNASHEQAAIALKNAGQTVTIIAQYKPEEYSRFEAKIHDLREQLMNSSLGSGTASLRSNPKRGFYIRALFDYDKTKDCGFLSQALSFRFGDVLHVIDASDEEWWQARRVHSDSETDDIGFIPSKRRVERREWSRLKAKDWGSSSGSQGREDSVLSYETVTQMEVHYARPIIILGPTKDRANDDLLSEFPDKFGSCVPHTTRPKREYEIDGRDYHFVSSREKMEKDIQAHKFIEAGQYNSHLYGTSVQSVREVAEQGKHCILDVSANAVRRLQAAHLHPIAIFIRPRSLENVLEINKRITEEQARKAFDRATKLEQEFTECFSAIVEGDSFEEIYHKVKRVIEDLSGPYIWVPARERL

| Activity | SMILES |
| --- | --- |
| inactive | Cc1cc2cc(C(=O)O)[nH]c2cc1C(=O)O |
| inactive | Cc1cc2c(C)c(C(=O)O)n(C)c2cc1C(=O)O |
| inactive | COC(=O)c1cc2[nH]c(C(=O)O)c(C)c2cc1C |
| inactive | COC(=O)c1cc2c(C)c(C(=O)O)[nH]c2cc1C |
| Active | Cc1cc2[nH]c(C(=O)O)c(C)c2cc1C(=O)O |
| inactive | CCOC(=O)c1ccc2[nH]c(C(=O)O)c(C)c2c1 |
| Active | Cc1c(C(=O)O)[nH]c2ccc(C(=O)O)cc12 |
| Active | Cc1cc2c(C)c(C(=O)O)[nH]c2cc1C(=O)O |
